In patent US4331606A, “N-(Substituted chromone-3-carbonyl)-phenylglycine derivatives” (Eisai Co., Ltd., priority 1980, dated 1982):
Converted amounts (≈) assume the structure as drawn.

Legend:
Format in all cases: cell-based
[1] = system: Staphylococcus aureus 209-P; assay: Antibacterial Activity (MIC) against Staphylococcus aureus 209-P
Escherichia coli NIHJ = assay: Antibacterial Activity (MIC) against Escherichia coli NIHJ
[2] = system: Klebsiella pneumoniae EK-6; assay: Antibacterial Activity (MIC) against Klebsiella pneumoniae EK-6; details: EK6
Proteus morganii EP-14 = assay: Antibacterial Activity (MIC) against Proteus morganii EP-14; details: Morganella morganii, EP14
[3] = system: Pseudomonas aeruginosa EP-172; assay: Antibacterial Activity (MIC) against Pseudomonas aeruginosa EP-172; details: EP172
[4] = system: Serratia marcescens ES-75; assay: Antibacterial Activity (MIC) against Serratia marcescens ES-75; details: ES75

MIC [1] [µg/mL] | MIC (Escherichia coli NIHJ) [µg/mL] | MIC [2] [µg/mL] | MIC (Proteus morganii EP-14) [µg/mL] | MIC [3] [µg/mL] | MIC [4] [µg/mL] | SMILES
6.25 (≈ 7.19 µM) | 0.4 (≈ 0.46 µM) | ≥ 0.05 | 1.56 (≈ 1.79 µM) | 0.8 (≈ 0.92 µM) | ≥ 0.05 | CCOC(=O)Oc1cc2occ(C(=O)N[C@@H](C(=O)N[C@@H]3C(=O)N4C(C(=O)O)=C(CSc5nnnn5CC(=O)O)CS[C@H]34)c3ccc(O)cc3)c(=O)c2cc1OC(=O)OCC [Preparatory Example 2 (A), 7β-[D-2-{6,7-bis(ethoxycarbonyloxy)chromone-3-carboxamido}-2-(4-hydroxyphenyl)acetamido]-3-[(1-carboxymethyl-5-tetrazolyl)thiomethyl]-3-cephem-4-carboxylic acid]
3.13 (≈ 4.31 µM) | 0.4 (≈ 0.551 µM) | ≥ 0.1 | 12.5 (≈ 17.2 µM) | 0.8 (≈ 1.1 µM) | ≥ 0.1 | O=C(O)Cn1nnnc1SCC1=C(C(=O)O)N2C(=O)[C@@H](NC(=O)[C@H](NC(=O)c3coc4cc(O)c(O)cc4c3=O)c3ccc(O)cc3)[C@H]2SC1 [Preparatory Example 2 (B), 7β-[D-2-(6,7-Dihydroxychromone-3-carboxyamido)-2-(4-hydroxyphenyl)acetamido]-3-[(1-carboxymethyl-5-tetrazolyl)thiomethyl]-cephem-4-carboxylic acid]
